Reference: ChEMBL document CHEMBL1201862, “PubChem BioAssay data set” (2004)
Several values for one entry are separate records, joined by “and”; a condition that tells them apart may be missing. Equal entries are not always repeated.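 In this assay, cells in 96-well plates receive the compound at five concentrations for 48 hours. Endpoints are linearly interpolated between the surrounding concentrations. GI50: concentration for 50% inhibition of growth.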 Activity calls are given as the source filed them. Cut-off read from the data, not from the text of the source: active = GI50 up to about 1.1 µM and inactive = higher.

Columns and labels:
Test in all cases: inhibition of tumour cell growth, NCI panel, 48 h
[1] = system: SK-MEL-2
[2] = system: SW-620
[3] = system: OVCAR-4
[4] = system: A549
[5] = system: K562
[6] = system: COLO 205
[7] = system: NCI/ADR-RES
[8] = system: UACC-257
[9] = system: SNB-75
[10] = system: NCI-H522
[11] = system: SNB-19
[12] = system: DU-145
[13] = system: UACC-62
[14] = system: MDA-MB-435
[15] = system: MCF7
[16] = system: LOX IMVI
[17] = system: SF-295
[18] = system: HL-60
[19] = system: CAKI-1
[20] = system: NCI-H460

Measured: GI50

CCc1n[nH]c(=O)n1/N=C/c1ccccc1O
inactive: [1] > 100 µM | [2] > 100 µM | [3] > 100 µM | [4] > 100 µM | [5] > 100 µM | [6] > 100 µM | [7] > 100 µM | [8] > 100 µM | [9] > 100 µM | [10] > 100 µM | [11] > 100 µM | [12] > 100 µM | [13] > 100 µM | [14] > 100 µM | [15] > 100 µM | [16] > 100 µM | [17] > 100 µM

CC1CC/C(=C\c2ccc(F)cc2)C2=C1C(c1ccc(F)cc1)n1c(s/c(=C/c3cccc(Br)c3)c1=O)=N2 (stereo unspecified)
inactive: [1] > 100 µM | [2] > 100 µM | [18] > 100 µM | [4] > 100 µM | [5] > 100 µM | [8] > 100 µM | [9] > 100 µM | [11] > 100 µM | [12] > 100 µM | [19] > 100 µM | [13] > 100 µM | [14] > 100 µM | [15] > 100 µM | [16] > 100 µM

COc1ccc(C[C@H]2COC(=O)[C@@H]2Cc2ccccc2)cc1OC
inactive: [2] > 100 µM | [4] > 100 µM | [5] > 100 µM | [7] > 100 µM | [20] > 100 µM | [8] > 100 µM | [11] > 100 µM | [12] > 100 µM | [15] > 100 µM | [16] > 100 µM | [17] > 100 µM

COc1cc(-c2c(C(C)=O)c(-c3ccccc3)n(C3OC(COC(C)=O)C(OC(C)=O)C(OC(C)=O)C3OC(C)=O)c(=S)c2C#N)ccc1O (stereo unspecified)
inactive: [2] > 100 µM | [3] > 100 µM | [4] > 100 µM and 88.7 µM | [5] > 100 µM | [6] 97.1 µM | [7] > 100 µM | [20] 75.5 µM | [11] > 100 µM | [12] 55.3 µM and 58.1 µM | [19] > 100 µM | [13] 59.2 µM | [14] 57.1 µM and 35.4 µM | [15] > 100 µM and 81.5 µM | [16] > 100 µM and 66.5 µM | [17] > 100 µM

O=[N+]([O-])c1ccc(-c2nn3c(C45CC6CC(CC(C6)C4)C5)nnc3s2)c(Cl)c1
inactive: [1] > 100 µM | [2] > 100 µM | [3] > 100 µM | [18] > 100 µM | [4] > 100 µM | [5] > 100 µM | [6] > 100 µM | [7] > 100 µM | [20] > 100 µM | [9] > 100 µM | [10] > 100 µM | [11] > 100 µM | [12] > 100 µM | [19] > 100 µM | [13] > 100 µM | [14] > 100 µM | [16] > 100 µM | [17] > 100 µM

Cn1c(=O)c2nc(CCCCC(=O)O)[nH]c2n(C)c1=O
inactive: [1] > 100 µM | [2] > 100 µM | [3] > 100 µM | [4] > 100 µM | [7] > 100 µM | [20] > 100 µM | [8] > 100 µM | [9] > 100 µM | [10] > 100 µM | [11] > 100 µM | [12] > 100 µM | [19] > 100 µM | [13] > 100 µM | [14] > 100 µM | [16] > 100 µM | [17] > 100 µM
